The assay deals with T1, LoTRE1.
T1 construct: whole coding region incl. predicted signal peptide (1-25) by primers (ORF 1839 bp, 612 aa, 70833 Da); E. coli Rosetta (DE3), Ni-NTA; ~70 kDa
Description: […],5-dinitrosalicylic acid assay of released glucose. It counts as biochemical, Lissorhoptrus oryzophilus. The note with it: PBS, pH 7.0, 50 °C, 30 min; substrate 1-10 mmol/L (Km above tested range).

As usually defined, the Km is the substrate concentration at which the rate is half of its maximum. In the case of `OC[C@H]1O[C@H](O[C@H]2O[C@H](CO)[C@@H](O)[C@H](O)[C@H]2O)[C@H](O)[C@@H](O)[C@@H]1O` [trehalose], the Km worked out at 48.6 mM.

Values taken from paper PMC9604388, “Purification and Functional Characterization of a Soluble Trehalase in Lissorhoptrus oryzophilus (Coleoptera: Curculionidae)” (Insects, 2022).
